Tests used:
CtBP2 = CtBP2 (Homo sapiens, UniProt P56545); experiment: Isothermal titration calorimetry; assay type: binding
CtBP [1] = assay type: biochemical, human
[2] = system: HCT116 colon cancer cells; conditions: through displacement of CtBP2 from the Bik promoter; cited from earlier work
mouse xenograft models = conditions: compared with untreated mice; cited from earlier work
CtBP [3] = conditions: cited from earlier work
CtBP1 = CtBP1 (Homo sapiens, UniProt Q13363); experiment: Isothermal titration calorimetry; conditions: CtBP1, pH 7.5, displacement ITC with HIPP
CtBP [4] = conditions: cited from earlier work; remark: listed apart in the source
[5] = CtBP2, pH 8.5, competitive displacement ITC with HIPP

SMILES: CSCCC(=O)C(=O)O [MTOB, 4-methylthio 2-oxobutyric acid]
- binding dissociation constant, direct ITC measurement (CtBP2; CtBP2, direct titration, low signal): low millimolar range
- ΔG (CtBP2; [5]): -3.4 kcal
- ΔH (CtBP2; [5]): -3.4 ± 0.34 kcal/mol
- −TΔS (CtBP2; [5]): 0.0 kcal/mol
- substrate inhibition (CtBP [1]; MTOB in excess): exhibits substrate inhibition when in excess
- apoptosis [2]: induced apoptosis
- survival (mouse xenograft models): prolonged survival
- tumor burden (mouse xenograft models): decreased tumor burden
- concentrations required for (substrate) inhibition of CtBP (CtBP [3]): > 300 µM
- ΔG (CtBP1): -3.9 kcal
- ΔH (CtBP1): -11.3 ± 0.83 kcal/mol
- −TΔS (CtBP1): 7.4 kcal/mol

SMILES: NC(=O)C1=CN([C@@H]2O[C@H](COP(=O)(O)OP(=O)(O)OC[C@H]3O[C@@H](n4cnc5c(N)ncnc54)[C@H](O)[C@@H]3O)[C@@H](O)[C@H]2O)C=CC1 [NADH]
- affinity of CtBP for NADH relative to NAD+ (CtBP [4]): 100 fold

SMILES: O=C(O)C(=O)Cc1ccccc1 [PPy, phenylpyruvate]
- binding relative to MTOB (ITC injection peaks) (CtBP2; CtBP2, low PPy concentrations, CtBP2 precipitation prevented quantitation): tighter than MTOB
- IC50 (CtBP [1]; CtBP dehydrogenase function, after 15 minutes): 135 µM
